Test results taken from ChEMBL document CHEMBL2396516, “Synthesis of novel bis(pyrimido[5,4-c]quinoline-2,4(1H,3H)-dione) and its derivatives: evaluation of their antioxidant properties” (Bioorg Med Chem Lett, 2013).
Values after ≈ are worked out from the molar mass of the structure shown.

What was measured:
Assay type in all cases: functional
[1] = Antioxidant activity assessed as reduction of ferric ion to ferrous ion by FRAP assay
[2] = system: Radical scavenging activity; experiment: Antioxidant activity assessed as DPPH free radical scavenging activity at 20 ug/ml by spectrophotometry
[3] = system: Radical scavenging activity; experiment: Antioxidant activity assessed as DPPH free radical scavenging activity by spectrophotometry

Structure (SMILES) | IC50 [1] [µg/mL] | IC50 [3] [µg/mL] | Activity [2] [%]
O=c1[nH]c(=S)[nH]c2c1C(c1ccccc1[N+](=O)[O-])Nc1nc3c(cc1-2)-c1[nH]c(=S)[nH]c(=O)c1C(c1ccccc1[N+](=O)[O-])N3 (stereo not drawn) | 30.47 (≈ 48.5 µM) | 13.6 (≈ 21.7 µM) | 73.6
O=c1[nH]c2c(c(=O)[nH]1)C(c1ccccc1)Nc1cc3c(cc1-2)NC(c1ccccc1)c1c-3[nH]c(=O)[nH]c1=O (stereo not drawn) | 32.76 (≈ 64.9 µM) | 12.15 (≈ 24.1 µM) | 82
O=c1[nH]c(=S)[nH]c2c1C(c1ccccc1)Nc1cc3c(cc1-2)NC(c1ccccc1)c1c-3[nH]c(=S)[nH]c1=O (stereo not drawn) | 32.1 (≈ 59.8 µM) | 12.62 (≈ 23.5 µM) | 79.6
O=c1[nH]c(=S)[nH]c2c1C(c1ccc(Cl)cc1)Nc1nc3c(cc1-2)-c1[nH]c(=S)[nH]c(=O)c1C(c1ccc(Cl)cc1)N3 (stereo not drawn) | 25 (≈ 41.2 µM) | 12.36 (≈ 20.4 µM) | 80.9
O=c1[nH]c2c(c(=O)[nH]1)C(c1ccccc1Cl)Nc1nc3c(cc1-2)-c1[nH]c(=O)[nH]c(=O)c1C(c1ccccc1Cl)N3 (stereo not drawn) | 25.51 (≈ 44.4 µM) | 12.42 (≈ 21.6 µM) | 80.8
O=c1[nH]c2c(c(=O)[nH]1)C(c1ccc([N+](=O)[O-])cc1)Nc1nc3c(cc1-2)-c1[nH]c(=O)[nH]c(=O)c1C(c1ccc([N+](=O)[O-])cc1)N3 (stereo not drawn) | 26.06 (≈ 43.8 µM) | 13.48 (≈ 22.6 µM) | 74.2
O=c1[nH]c2c(c(=O)[nH]1)C(c1ccccc1[N+](=O)[O-])Nc1nc3c(cc1-2)-c1[nH]c(=O)[nH]c(=O)c1C(c1ccccc1[N+](=O)[O-])N3 (stereo not drawn) | 31.39 (≈ 52.7 µM) | 13.56 (≈ 22.8 µM) | 74
O=c1[nH]c(=S)[nH]c2c1C(c1ccc(Cl)cc1)Nc1cc3c(cc1-2)NC(c1ccc(Cl)cc1)c1c-3[nH]c(=S)[nH]c1=O (stereo not drawn) | 24.11 (≈ 39.8 µM) | 11.93 (≈ 19.7 µM) | 84.4
O=c1[nH]c(=S)[nH]c2c1C(c1cccc([N+](=O)[O-])c1)Nc1nc3c(cc1-2)-c1[nH]c(=S)[nH]c(=O)c1C(c1cccc([N+](=O)[O-])c1)N3 (stereo not drawn) | 34.93 (≈ 55.7 µM) | 14.34 (≈ 22.8 µM) | 70.1
O=c1[nH]c(=S)[nH]c2c1C(c1ccccc1)Nc1nc3c(cc1-2)-c1[nH]c(=S)[nH]c(=O)c1C(c1ccccc1)N3 (stereo not drawn) | 33.5 (≈ 62.3 µM) | 14.25 (≈ 26.5 µM) | 70.4
O=c1[nH]c2c(c(=O)[nH]1)C(c1ccccc1)c1ccccc1N2 (stereo not drawn) | – | 18.91 (≈ 64.9 µM) | –
O=c1[nH]c2c(c(=O)[nH]1)C(c1ccc(Cl)cc1)Nc1nc3c(cc1-2)-c1[nH]c(=O)[nH]c(=O)c1C(c1ccc(Cl)cc1)N3 (stereo not drawn) | 24.41 (≈ 42.5 µM) | 12.35 (≈ 21.5 µM) | 81.1
O=c1[nH]c2c(c(=O)[nH]1)C(c1ccc(Cl)cc1)Nc1cc3c(cc1-2)NC(c1ccc(Cl)cc1)c1c-3[nH]c(=O)[nH]c1=O (stereo not drawn) | 23.21 (≈ 40.5 µM) | 11.8 (≈ 20.6 µM) | 85.2
O=c1[nH]c(=S)[nH]c2c1C(c1ccccc1Cl)Nc1cc3c(cc1-2)NC(c1ccccc1Cl)c1c-3[nH]c(=S)[nH]c1=O (stereo not drawn) | 24.46 (≈ 40.4 µM) | 11.99 (≈ 19.8 µM) | 84.1
O=c1[nH]c(=S)[nH]c2c1C(c1ccccc1Cl)Nc1nc3c(cc1-2)-c1[nH]c(=S)[nH]c(=O)c1C(c1ccccc1Cl)N3 (stereo not drawn) | 25.07 (≈ 41.3 µM) | 12.41 (≈ 20.5 µM) | 80.6

Further lines, with some results ahead:

IC50 [1] [µg/mL] | IC50 [3] [µg/mL] | Structure (SMILES) | Activity [2] [%]
34.9 (≈ 58.6 µM) | 14.24 (≈ 23.9 µM) | O=c1[nH]c2c(c(=O)[nH]1)C(c1cccc([N+](=O)[O-])c1)Nc1nc3c(cc1-2)-c1[nH]c(=O)[nH]c(=O)c1C(c1cccc([N+](=O)[O-])c1)N3 (stereo not drawn) | 70.2
25.21 (≈ 40.2 µM) | 12.17 (≈ 19.4 µM) | O=c1[nH]c(=S)[nH]c2c1C(c1ccc([N+](=O)[O-])cc1)Nc1cc3c(cc1-2)NC(c1ccc([N+](=O)[O-])cc1)c1c-3[nH]c(=S)[nH]c1=O (stereo not drawn) | 82.3
26.25 (≈ 41.8 µM) | 13.56 (≈ 21.6 µM) | O=c1[nH]c(=S)[nH]c2c1C(c1ccc([N+](=O)[O-])cc1)Nc1nc3c(cc1-2)-c1[nH]c(=S)[nH]c(=O)c1C(c1ccc([N+](=O)[O-])cc1)N3 (stereo not drawn) | 74
33.28 (≈ 56 µM) | 12.39 (≈ 20.8 µM) | O=c1[nH]c2c(c(=O)[nH]1)C(c1cccc([N+](=O)[O-])c1)Nc1cc3c(cc1-2)NC(c1cccc([N+](=O)[O-])c1)c1c-3[nH]c(=O)[nH]c1=O (stereo not drawn) | 81.7
29.5 (≈ 47.1 µM) | 12.15 (≈ 19.4 µM) | O=c1[nH]c(=S)[nH]c2c1C(c1ccccc1[N+](=O)[O-])Nc1cc3c(cc1-2)NC(c1ccccc1[N+](=O)[O-])c1c-3[nH]c(=S)[nH]c1=O (stereo not drawn) | 82
33.7 (≈ 53.8 µM) | 12.68 (≈ 20.2 µM) | O=c1[nH]c(=S)[nH]c2c1C(c1cccc([N+](=O)[O-])c1)Nc1cc3c(cc1-2)NC(c1cccc([N+](=O)[O-])c1)c1c-3[nH]c(=S)[nH]c1=O (stereo not drawn) | 79.3
24.01 (≈ 41.9 µM) | 12.05 (≈ 21 µM) | O=c1[nH]c2c(c(=O)[nH]1)C(c1ccccc1Cl)Nc1cc3c(cc1-2)NC(c1ccccc1Cl)c1c-3[nH]c(=O)[nH]c1=O (stereo not drawn) | 84
25.01 (≈ 42.1 µM) | 12.44 (≈ 20.9 µM) | O=c1[nH]c2c(c(=O)[nH]1)C(c1ccc([N+](=O)[O-])cc1)Nc1cc3c(cc1-2)NC(c1ccc([N+](=O)[O-])cc1)c1c-3[nH]c(=O)[nH]c1=O (stereo not drawn) | 80.9
33.91 (≈ 67.1 µM) | 14.21 (≈ 28.1 µM) | O=c1[nH]c2c(c(=O)[nH]1)C(c1ccccc1)Nc1nc3c(cc1-2)-c1[nH]c(=O)[nH]c(=O)c1C(c1ccccc1)N3 (stereo not drawn) | 70.6
29.08 (≈ 48.9 µM) | 12.07 (≈ 20.3 µM) | O=c1[nH]c2c(c(=O)[nH]1)C(c1ccccc1[N+](=O)[O-])Nc1cc3c(cc1-2)NC(c1ccccc1[N+](=O)[O-])c1c-3[nH]c(=O)[nH]c1=O (stereo not drawn) | 82.7
